Tests used:
CK2 holoenzyme = assay: Effect of CFTR peptides on substrate phosphorylation by CK2 holoenzyme; assay type: biochemical, human
CK2α catalytic subunit [1] = assay: Effect of CFTR peptides on substrate phosphorylation by CK2α catalytic subunit; assay type: biochemical, human; conditions: below 400 μM, murine NBD1, Figure 3A
CK2α catalytic subunit [2] = conditions: β interaction with CK2α; cited from earlier work

Substance: GTIKENIIFGVSYDEYRYR [CFTR 500−518 wild type]
- stimulation of I-2 and HSP90 phosphorylation by CK2 holoenzyme (CK2 holoenzyme; peptides 80 μM, I-2 2.5 μM, HSP90 0.5 μM, Figure 5A): no stimulation
- effect on NBD1 phosphorylation by CK2α at lower peptide concentrations (CK2α catalytic subunit [1]): slight stimulatory effect

Substance: Δ wt: CK2 β-subunit; its interaction values with CK2α were from ref 29
- ka (M^−1 s^−1) × 10^3 (CK2α catalytic subunit [2]): 22.7 M^−1 s^−1 × 10^3
- kd (s^−1) × 10^−3 (CK2α catalytic subunit [2]): 0.93 s^−1 × 10^−3

Substance: GTIKENIIGVSYDEYRYR [CFTR 500−518 ΔF508]
- inhibition of holoenzyme-mediated NBD1 phosphorylation (CK2 holoenzyme; peptide concentration up to 800 μM, Figure 3B): no inhibition

Reference: PMC2774623 (Biochemistry, 2008)
